Seven molecules from patent US5710150A, “Benzazepine derivative, pharmaceutical composition thereof, and intermediate thereof” (Yamanouchi Pharmaceutical Co., Ltd., priority 1993, dated 1998) can be followed below.

Counter-ions that a name gives are not always drawn. Like-named read-outs stand apart in the source and are kept apart here.

In test [1] the target is arginine vasopressin V2 receptor (Oryctolagus cuniculus, UniProt G1TA00). The test is described as follows: V2 receptor binding assay ([3H]-Arg-vasopressin, rabbit renal medulla membrane). The note with it: for Binding activity on arginine vasopressin V2 receptor (pKi): rabbit renal medulla membrane, [3H]-Arg-vasopressin 2 nM.
Sequence of arginine vasopressin V2 receptor (G1TA00 78-446): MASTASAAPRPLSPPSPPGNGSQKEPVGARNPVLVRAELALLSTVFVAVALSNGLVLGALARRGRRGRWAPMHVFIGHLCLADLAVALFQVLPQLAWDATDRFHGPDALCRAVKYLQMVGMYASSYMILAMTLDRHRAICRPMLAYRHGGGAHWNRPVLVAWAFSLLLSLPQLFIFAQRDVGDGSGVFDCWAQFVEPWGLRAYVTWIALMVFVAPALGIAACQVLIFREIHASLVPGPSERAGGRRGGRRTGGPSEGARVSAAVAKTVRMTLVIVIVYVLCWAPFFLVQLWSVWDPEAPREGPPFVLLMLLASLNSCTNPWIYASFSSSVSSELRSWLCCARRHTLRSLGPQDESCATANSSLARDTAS
Test [2] concerns the target T1, arginine vasopressin V1 receptor (Rattus norvegicus, UniProt P30560).
T1 construct: A rat liver membrane sample was prepared; from tissue; host or cells: rat liver membranes
Kind of test: V1 receptor binding assay ([3H]-Arg-vasopressin, rat liver membrane). How it is done: (1) V1 receptor binding assay
A rat liver membrane sample was prepared in accordance with the method of Nakamura et al. (J. Biol. Chem., 258, 9283 (1983)), and [^3 H]-Arg-vasopressin (2 nM, specific activity=75.8 Ci/mmol), 70 μg of the membrane sample and each drug to be tested (10^-8 to 10^-4 M) were incubated at 30° C. for 30 minutes in 250 μl of 100 mM Tris-HCl buffer (pH=8.0) containing 5 mM of magnesium chloride, 1 mM of ethylenediaminetetraacetic acid (EDTA) and 0.1% of bovine serum albumin (BSA). Thereafter, the incubation solution was sucked off using a cell harvester and free ligand and excess buffer were removed by passing the reaction mixture through a glass filter (GF/B), thereby trapping receptor-bound labeled ligand on the glass filter. The glass filter was taken out, thoroughly dried and then mixed with a liquid scintillation cocktail, and the amount of the membrane-bound [^3 H]-vasopressin was measured using a liquid scintillation counter to calculate the inhibition ratio by the following formula. [formula] C1 : amount of [^3 H]-vasopressin bound to the membrane in the coexistence of known amount of each drug to be tested and [^3 H]-vasopressin
C0 : amount of [^3 H]-vasopressin bound to the membrane when the drug to be tested was not added
B1 : amount of [^3 H]-vasopressin bound to the membrane in the presence of excess vasopressin (10^-6 M)
[formula] [L]: concentration of radioactive ligand KD: dissociation constant calculated from Scatchard plot
Negative logarithm of the thus calculated Ki value was used as pKi value.

The mark [3] stands for this setting: rat liver membrane, [3H]-Arg-vasopressin 2 nM, 30° C., 30 minutes, pH 8.0, read-out: Binding activity on arginine vasopressin V1 receptor (pKi) (converted).
The mark [4] stands for this setting: compared with OPC-31260 and OPC-21268.

T1 sequence (P30560 whole entry): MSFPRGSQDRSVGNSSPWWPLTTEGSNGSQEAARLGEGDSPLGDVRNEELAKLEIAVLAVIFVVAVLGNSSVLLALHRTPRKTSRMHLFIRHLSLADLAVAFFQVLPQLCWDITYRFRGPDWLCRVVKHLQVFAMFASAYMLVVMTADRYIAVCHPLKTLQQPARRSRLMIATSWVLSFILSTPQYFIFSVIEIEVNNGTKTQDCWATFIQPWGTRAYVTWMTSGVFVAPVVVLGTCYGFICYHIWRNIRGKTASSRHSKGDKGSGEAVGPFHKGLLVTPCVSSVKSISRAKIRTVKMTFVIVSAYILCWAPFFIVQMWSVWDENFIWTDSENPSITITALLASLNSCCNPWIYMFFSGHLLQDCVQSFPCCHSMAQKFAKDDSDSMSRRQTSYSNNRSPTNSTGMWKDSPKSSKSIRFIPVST

On to `CN(C)C1CCN(C(=O)/C=C2/c3ccccc3N(C(=O)c3ccc(NC(=O)c4cccc5ccccc45)cc3)CCC2(F)F)CC1` [Example 109, (Z)-N-[4'-[[4,4-difluoro-5-[[(4-dimethylaminopiperidino)carbonyl]methylene]-2,3,4,5-tetrahydro-1H-1-benzazepin-1-yl]carbonyl]phenylnaphthalene-1-carboxyamide hydrochloride], for which, in test [1], the “Binding activity on arginine vasopressin V2 receptor (pKi)” value (“Binding activity” below) turned out to be 8.06. In addition, the Ki in test [2] (setting [3]) was 3980 pM.

As for `Cc1ccoc1C(=O)Nc1ccc(C(=O)N2CCC(F)(F)/C(=C\C(=O)N3CCC(N(C)C)CC3)c3ccccc32)cc1` [Example 113, (Z)-N-[4-[[4,4-difluoro-5-[[(4-dimethylaminopiperidino)carbonyl]methylene]-2,3,4,5-tetrahydro-1H-1-benzazepin-1-yl]carbonyl]phenyl]-3-methyl-2-furancarboxyamide hydrochloride], the “Binding activity” value in test [1] stood at 7.50. The molecule also showed a Ki in test [2] of 263 pM. For the same molecule, in test [2] (V1 versus V2 receptor binding), the “V1 selectivity (in words)” value is on record as “excellent in V1 selectivity”. The “V1 receptor antagonism compared with OPC-21268 (in words)” value in test [2] (versus OPC-21268) was “markedly stronger V1 receptor antagonism than that of OPC-21268”.

In the case of `O=C(Nc1ccc(C(=O)N2CCC(F)(F)/C(=C\C(=O)N3CCOCC3)c3ccccc32)cc1)c1ccccc1-c1ccccc1` [Example 133, (Z)-4'-[(4,4-difluoro-5-morpholinocarbonylmethylene-4,4-difluoro-2,3,4,5-tetrahydro-1H-1-benzazepin-1-yl)carbonyl]-2-phenylbenzanilide], in test [1], the “Binding activity” value is given as 8.28. For the same molecule, in test [2] (setting [3]), the Ki is 363 pM.

For the molecule `O=C(Nc1ccc(C(=O)N2CCC(F)(F)/C(=C\C(=O)N3CCCC3)c3ccccc32)cc1)c1ccccc1-c1ccccc1` [Example 131], the “Binding activity” value in test [1] worked out at 7.99. In addition, in test [2] (setting [3]), the Ki was 708 pM.

Take `CN(C)C(=O)/C=C1/c2ccccc2N(C(=O)c2ccc(NC(=O)c3ccccc3-c3ccccc3)cc2)CCC1(F)F` [Example 129, (Z)-4'-[[5-(N,N-dimethylcarbamoylmethylene)-4,4-difluoro-2,3,4,5-tetrahydro1H-1-benzazepin-1-yl]carbonyl]-2-phenylbenzanilide]: the “Binding activity” value in test [1] was 8.24. Also, the Ki in test [2] (setting [3]) is 479 pM.

For the molecule `Cl.O=C(Nc1ccc(C(=O)N2CCC(F)(F)/C(=C\C(=O)N3CCNCC3)c3ccccc32)cc1)c1ccccc1-c1ccccc1` [Example 12, (Z)-4'-[[4,4-difluoro-5-[(1piperazinylcarbonyl)methylene]-2,3,4,5-tetrahydro-1H-1-benzazepin-1-yl]carbonyl]-2-phenylbenzanilide hydrochloride], the “antagonism on V2 receptor (in words)” value in test [1] (setting [4]) is “excellent antagonisms on both V1 and V2 receptors”. In addition, the “Binding activity” value in test [1] was determined as 9.71. Besides, the “antagonism on V1 receptor (in words)” value in test [2] (setting [4]) was “excellent antagonisms on both V1 and V2 receptors”. In addition, the Ki in test [2] (setting [3]) is 219 pM.

With `CCNC(=O)/C=C1/c2ccccc2N(C(=O)c2ccc(NC(=O)c3ccccc3-c3ccccc3)cc2)CCC1(F)F` [Example 123, (Z)-4'-[[5-(N-ethylcarbamoylmethylene)-4,4-difluoro-2,3,4,5-tetrahydro-1H-1-benzazepin-1-yl]carbonyl]-2-phenylbenzanilide], in test [1], the “Binding activity” value amounted to 9.16. In test [2] (setting [3]), the Ki was 200 pM.
